{
  "source": "paper PMC4660977",
  "about": "(Molecular pharmaceutics, 2015)",
  "key": {"meprin β": {"target": "T1, meprin β (Homo sapiens, UniProt Q16820)", "T1 sequence (Q16820 62-701)": "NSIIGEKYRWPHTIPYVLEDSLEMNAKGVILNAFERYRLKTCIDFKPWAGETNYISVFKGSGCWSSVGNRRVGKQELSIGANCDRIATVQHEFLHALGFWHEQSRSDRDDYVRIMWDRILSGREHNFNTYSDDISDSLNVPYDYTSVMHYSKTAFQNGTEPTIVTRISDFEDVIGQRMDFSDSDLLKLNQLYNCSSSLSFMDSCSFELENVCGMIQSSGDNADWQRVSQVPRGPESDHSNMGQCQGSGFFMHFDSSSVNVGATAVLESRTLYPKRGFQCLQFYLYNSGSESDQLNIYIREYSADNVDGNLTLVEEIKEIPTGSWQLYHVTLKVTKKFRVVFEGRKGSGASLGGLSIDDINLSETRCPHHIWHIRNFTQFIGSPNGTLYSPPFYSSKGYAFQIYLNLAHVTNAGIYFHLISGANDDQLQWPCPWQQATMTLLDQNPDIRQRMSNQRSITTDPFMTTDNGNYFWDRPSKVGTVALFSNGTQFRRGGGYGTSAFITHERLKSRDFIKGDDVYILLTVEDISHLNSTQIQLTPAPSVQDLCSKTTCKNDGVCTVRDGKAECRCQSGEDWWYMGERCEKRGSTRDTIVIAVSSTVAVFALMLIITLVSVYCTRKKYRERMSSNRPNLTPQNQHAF", "experiment": "Meprin β digestion, remaining function at GLP-1R", "format": "in vitro ADME", "conditions": "meprin β concentrations greater than 3 µg/mL; 30 min, 100 nM; AKAR3 FRET"}, "GLP-1R": {"target": "GLP-1R (Homo sapiens, UniProt P43220)", "sequence (P43220 24-463)": "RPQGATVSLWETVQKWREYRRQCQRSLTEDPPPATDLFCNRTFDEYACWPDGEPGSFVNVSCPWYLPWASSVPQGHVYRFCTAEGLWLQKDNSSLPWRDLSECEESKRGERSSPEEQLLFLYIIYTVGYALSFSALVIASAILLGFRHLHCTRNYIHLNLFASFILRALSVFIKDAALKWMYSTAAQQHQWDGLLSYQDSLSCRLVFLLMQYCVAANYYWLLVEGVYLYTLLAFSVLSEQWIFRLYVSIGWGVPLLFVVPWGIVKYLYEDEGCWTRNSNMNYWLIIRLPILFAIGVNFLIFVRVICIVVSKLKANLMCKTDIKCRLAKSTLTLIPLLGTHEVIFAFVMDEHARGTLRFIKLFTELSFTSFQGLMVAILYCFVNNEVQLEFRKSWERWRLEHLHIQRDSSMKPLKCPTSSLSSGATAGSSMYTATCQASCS", "experiment": "GLP-1R agonism, AKAR3 FRET reporter assay in HEK-GLP-1R cells", "format": "cell-based", "conditions": "undigested"}, "[1]": {"target": "intrinsic factor (IF) (human) (UniProt P27352)", "sequence (P27352 19-417)": "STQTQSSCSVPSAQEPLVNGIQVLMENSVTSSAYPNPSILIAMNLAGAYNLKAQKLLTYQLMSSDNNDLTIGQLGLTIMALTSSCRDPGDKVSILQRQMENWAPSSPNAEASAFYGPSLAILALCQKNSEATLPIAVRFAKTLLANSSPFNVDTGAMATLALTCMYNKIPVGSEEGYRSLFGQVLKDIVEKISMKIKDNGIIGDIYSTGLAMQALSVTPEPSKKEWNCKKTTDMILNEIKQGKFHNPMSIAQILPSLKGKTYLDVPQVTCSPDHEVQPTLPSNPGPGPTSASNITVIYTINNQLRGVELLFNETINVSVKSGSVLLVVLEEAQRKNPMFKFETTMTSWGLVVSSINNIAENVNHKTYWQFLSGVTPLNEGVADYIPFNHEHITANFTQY", "experiment": "radioligand binding"}, "[2]": {"target": "glucagon-like peptide-1 receptor (GLP-1R) (UniProt P43220)", "sequence (P43220 24-463)": "as the sequence (P43220 24-463) above"}},
  "data": [
    {"substance": "(AzidoK12)-Ex-4 [Compound 1]", "values": [
      {"measurement": "function after meprin β digestion", "setting": "meprin β", "value": "No function"},
      {"measurement": "% change in FRET at 100 nM", "setting": "GLP-1R", "value": "−12 ± 0.01", "unit": "%"}
    ]},
    {"substance": "B12-Ex-4 conjugate (4) (from UniProt P26349 48-87) (peptide)", "values": [
      {"measurement": "IF binding (constant not named)", "setting": "[1]", "value": 6.8, "unit": "nM"}
    ]},
    {"substance": "IF-B12-Ex-4 complex (IF-4) (from UniProt P27352 19-417)", "values": [
      {"measurement": "% change in FRET at 100 nM (AKAR3 in HEK-GLP-1R cells)", "setting": "[2]", "value": -12, "unit": "%"}
    ]}
  ]
}
